Test results reported in patent US11865176B2, “Compositions and methods of modulating anti-tumor immunity” (Dana-Farber Cancer Institute, Inc., priority 2016, dated 2024).

Key:
total splenocytes = test: IFNγ production (ELISA) by splenocytes of mice treated in vivo; parameters: species or system mouse; conditions: tumor-bearing mice, 100 mg/kg IP
Method: FIG. 11. Tumor antigen experienced T cells are more sensitive to CDK4/6 inhibition. A. Naive C57BL/6 mice were treated with trilaciclib (100 mg/kg, IP) or vehicle for three days. Two and seven days after the final treatment, splenocytes were isolated and stimulated with α-CD3/CD28 antibodies for 72 hours to measure IFNγ production by ELISA. B. C57BL/6 mice were implanted with B16F10 tumor cells. Seven days post implantation mice were treated with trilaciclib (100 mg/kg, IP) or vehicle for 5 days. Five days post final treatment splenocytes were isolated and stimulated with α-CD3/CD28 antibodies for IFNγ production by ELISA. C. IL-2 production from Tconv (CD4^+CD25^−) cells after trilaciclib treatment. Tconv cells were isolated from either naive or tumor bearing (TMB) mice and treated with trilaciclib at indicated concentrations, in the presence of CD3 and CD28 antibodies. IL-2 production was determined 3 days after the treatment as percentage. (n=3) IFNγ production in CD8^+ T cells alone from naive or TMB mice after treatment with trilaciclib, as shown by percentage (D) or fold change (E). (n=3) F. Increased IFNγ production in CD8+ T cells by trilaciclib in the presence of Tregs. […] IFNγ production was determined 3 days after the treatment as shown as percentage. […]

CDK4/6 = test: Kinome profiling (KINOMEscan), selectivity; assay type: binding; conditions: compared with abemaciclib
Method: Palbociclib and abemaciclib were profiled by DiscoveRx using KINOMEscan (55). Briefly, the two compounds were tested at 100 nM and 1000 nM. Targeted kinases were visualized using the TREEspot™ compound profile visualization tool. Z'LYTE™ kinase assays were conducted for GSK3α and GSK3β at Life Technologies using Km ATP concentrations.

[1] = test system: primary human CD4+ T cells; test: IL2 ELISA, primary human CD4+ T cells; assay type: cell-based; conditions: α-CD3/CD28 and recombinant PD-L1 or control IgG; 100 nM (FIG. 1C)
Method: PD-1-overexpressing Jurkat cells as previously published (23) were stimulated with Dynabeads conjugated to α-CD3 (UCHT1), α-CD28 (28.2), and α-PD-1 (clone EH12 from Gordon Freeman) or control IgG at a 4:1 bead:cell ratio in the presence of 1 μM CDK4/6 inhibitor for 18 h. For primary human T cells, normal donor human blood was obtained through DFCI IRB Protocol 04-430. PBMC were isolated using a Ficoll-Paque density gradient, and purified populations of CD4+ T lymphocytes were obtained through a negative magnetic selection kit according to manufacturer's instructions (Miltenyi). […] IL-2 levels in the supernatant were analyzed by AlphaLISA (Perkin Elmers) according to the manufacturer's protocol.

[2] = test system: tumor infiltrating immune cells; test: FACS analysis of lung tumor immune infiltrates, KP GEMM; assay type: in vivo, mouse
Source text: All animal studies were reviewed and approved by the Institutional Animal Care and Use Committee (IACUC) at the Dana-Farber Cancer Institute. The genetically engineered mouse model (GEMM) harboring a conditional activating mutation of endogenous Kras (Kras^LSL-G12D/+) crossed with p53 conditional knockout Trp53^fl/fl has been previously described (36). CRE recombinase was induced through intranasal inhalation of […] adeno-Cre (University of Iowa adenoviral core).
For drug treatment studies in GEMM models, mice were evaluated by MRI imaging to quantify lung tumor burden before and after drug treatment. Mice were treated with either vehicle, or 100 mg/kg trilaciclib or 100 mg/kg palbociclib daily by oral gavage.
Mice were sacrificed, and lungs were perfused using sterile PBS through heart perfusion from the left ventricle after BAL fluid collection. The whole lung was minced into small pieces and digested in collagenase D (Sigma) and Dnase I (Sigma) in Hank's Balanced Salt Solution (HBSS) at 37° C. for 30 min. […] Live cells were determined by LIVE/DEAD® fixable aqua dead cell stain kit (Molecular Probes). The cell pellets were re-suspended in PBS with 2% FBS for Fluorescence-activated cell sorting (FACS) analysis. […] Cells were imaged on BD LSRFortessa (BD Biosciences) and analyzed using FlowJo software (Tree Star).

CN1CCN(c2ccc(Nc3ncc4cc5n(c4n3)C3(CCCCC3)CNC5=O)nc2)CC1 [trilaciclib]
IFNγ secretion of total splenocytes (total splenocytes): increased IFNγ secretion
selectivity for CDK4/6 (CDK4/6): significantly more selective for CDK4/6
IL-2 secretion [1]: enhanced IL-2 secretion
infiltration of CD4+ T cells and, to a lesser degree, CD8+ cells into lung tumors ([2]; KP mice, 100 mg/kg daily for 7 days): increased infiltration
levels of PD-1 and CTLA-4 in CD4+ and CD8+ T cells ([2]; after treatment, to different extents): reduced
